The values that follow come from patent US20260053886A1, “ANTICANCER AGENT” (The Trustees of Princeton University, priority 2022, published 2026).

Values after ≈ are worked out from the molar mass of the structure shown. Values joined by “and” are separate entries in the source; they are usually repeats but may differ in a detail not shown here. Equal entries are not always repeated. Where two headings read alike, the source gives them in different places. Non-standard residues stand in square brackets, D forms with d. Residues, ends and D or L forms follow the SMILES beside them. Phe(βS-OH) = N[C@H](C(=O)O)[C@@H](O)c1ccccc1; NMeH = CN[C@@H](Cc1c[nH]cn1)C(=O)O; Hyp = O=C(O)[C@@H]1C[C@@H](O)CN1; NMeF = CN[C@@H](Cc1ccccc1)C(=O)O; NMeL = CN[C@@H](CC(C)C)C(=O)O; Dap = NC[C@H](N)C(=O)O; Sar = CNCC(=O)O

In one experiment the test system is M. luteus. Briefly: effect on microbial growth (MIC). Format: cell-based.
Another experiment relates to E. coli K12. Briefly: effect on microbial growth (MIC).
For experiment [1], the system named is colon cancer cell line HCT116. Briefly: anticancer assay, growth inhibition, dose-response. The experiment is classed as cell-based.
A further experiment relates to V. cholerae. Briefly: effect on microbial growth (MIC).
The subject of a further experiment is S. aureus Newman. The experiment can be described thus: effect on microbial growth (MIC). Format: cell-based.
The subject of experiment [2] is breast cancer cell line MDA-MB-231. The experiment can be described thus: anticancer assay, growth inhibition, dose-response. The experiment is classed as cell-based.
In a further experiment the test system is B. subtilis 3610. Briefly: effect on microbial growth (MIC). The experiment is classed as cell-based.
For the next experiment, the system named is B. subtilis 168. The experiment can be described thus: effect on microbial growth (MIC).
The next experiment concerns P. aeruginosa PAO1. Briefly: effect on microbial growth (MIC). Format: cell-based.
For another experiment, the system named is E. faecalis OG1RF. Briefly: effect on microbial growth (MIC). Format: cell-based.
The next experiment deals with S. epidermidis. Briefly: effect on microbial growth (MIC). Format: cell-based.
The subject of the next experiment is S. cerevisiae. The experiment can be described thus: effect on microbial growth (MIC).
The next experiment relates to S. pombe. The experiment can be described thus: effect on microbial growth (MIC).
The subject of experiment [3] is momomycin production in S. rimosus Δrim::aprR. Briefly: induction of momomycin production (HR-HPLC-MS extracted ion chromatograms). The settings on record: Streptomyces rimosus, 120 h, read-out: half-maximal elicitor concentration (EC50). Format: cell-based. Here is the method: A seed culture of S. rimosus Δrim::apr^R was inoculated in TSBY medium as described above, which was used to start fermentation cultures in 125 mL Erlenmeyer flasks with the final concentration of cells of 0.05% (w/v). Each flask contained 25 mL R4 medium, supplemented with various concentrations of elicitors or equal volumes of DMSO as control. After 5 d of cultivation at 30° C./250 rpm, the cultures were spun down and processed by solid phase extraction (SPE). Specifically, 5 mL of supernatant was filtered and loaded onto STRATA® C18-E column (Phenomenex, 55 μm, 70 Å, 50 mg), which had been activated with MeOH and equilibrated with H2O. The column was washed with 1 mL H2O and eluted by 1 mL MeOH. The samples in MeOH were dried in vacuo, resuspended in 50 μL MeCN in H2O, and subjected to HR-HPLC-MS analysis.
(§1) Separately, small-scale fermentation of S. rimosus Δrim::apr^R was performed as described above with the following concentrations of phytosphingosine: 0, 1.25, 2.5, 5, 10, 20, 40, 80, 160 μM. After 5 d, cells were collected by centrifugation (4000 g, 1 h) and the wet weight of pellets were measured.
Cell viability relative to DMSO-treated samples were graphed and fit to a dose-response curve in Prism 9 to obtain the IC50 value. In addition, culture supernatants were processed via SPE as described above and samples were subjected to HR-HPLC-MS analysis. […]

The subject of another experiment is S. rimosus Δrim::aprR. The experiment can be described thus: antimicrobial activity, cell viability (wet pellet weight) relative to DMSO. The settings on record: Streptomyces rimosus, 120 h, read-out: half-maximal inhibitory concentration (IC50). The experiment is classed as cell-based. Here is the method:
as §1
Cell viability relative to DMSO-treated samples were graphed and fit to a dose-response curve in Prism 9 to obtain the IC50 value. In addition, culture supernatants were processed via SPE as described above and samples were subjected to HR-HPLC-MS analysis. The extracted ion chromatograms of momomycin were integrated and the data were graphed to represent the induction effect of phytosphingosine on momomycin production at different concentrations. All data points were taken from biological duplicates.

Take `CC(C)C[C@H]1C(=O)N(C)[C@@H](Cc2ccccc2)C(=O)N[C@@H](Cc2ccc(O)cc2)C(=O)N[C@@H]([C@@H](O)c2ccccc2)C(=O)N[C@@H](CC(=O)O)C(=O)N(C)CC(=O)N[C@@H](CN)C(=O)N2C[C@H](O)C[C@H]2C(=O)N[C@@H](CN)C(=O)N(C)[C@@H](Cc2ccccc2)C(=O)N(C)[C@@H](Cc2cnc[nH]2)C(=O)N1C` [momomycin] (cyclo(D[Sar][Dap][Hyp][Dap][NMeF][NMeH][NMeL][NMeF]Y[Phe(βS-OH)])): the “minimum inhibitory concentration (MIC)” value was 64 µg/mL (≈ 45.8 µM) with M. luteus; “above 64 μg/mL” in the experiment with E. coli K12; “above 64 μg/mL” in the experiment with V. cholerae; “above 64 μg/mL” in the experiment on S. aureus Newman; “above 64 μg/mL” in the experiment with B. subtilis 3610; “above 64 μg/mL” in the experiment on B. subtilis 168. The “minimum inhibitory concentration (MIC)” value with P. aeruginosa PAO1, with E. faecalis OG1RF, in the experiment on S. epidermidis, in the experiment on S. cerevisiae and in the experiment on S. pombe was “above 64 μg/mL” in each case. Moreover, the IC50 is 1100 nM and ~1100 nM in experiment [1] (colorectal carcinoma / colon cancer cell line HCT116, FIG. 2A, read-out: IC50); 1.5 µg/mL in experiment [1] (colorectal carcinoma HCT116, dose-response curve FIG. 2A); 1200 nM in [2] (adenocarcinoma MDA-MB-231, FIG. 2B, read-out: IC50); 1.7 µg/mL in experiment [2] (adenocarcinoma MDA-MB-231, dose-response curve FIG. 2B).
`CCCCCCCCCCCCCC[C@@H](O)[C@@H](O)[C@@H](N)CO` [phytosphingosine]: the EC50 in [3] amounted to 16900 nM. Moreover, the IC50 in the experiment on S. rimosus Δrim::aprR was determined as 37800 nM.
